Test [1] relates to panel of 74 other receptors, enzymes, and ion channels. Put plainly: Selectivity panel binding. The conditions noted are these: test concentration of 1 μM. An excerpt:
Tradipitant is a selective neurokinin-1 (NK-1) receptor antagonist. […] By 3 different measures, tradipitant is also a potent centrally active NK-1 antagonist in vivo.

For a further test, the target named is T1, NK-2 receptor (Homo sapiens, UniProt P21452).
T1 sequence (P21452 1-398): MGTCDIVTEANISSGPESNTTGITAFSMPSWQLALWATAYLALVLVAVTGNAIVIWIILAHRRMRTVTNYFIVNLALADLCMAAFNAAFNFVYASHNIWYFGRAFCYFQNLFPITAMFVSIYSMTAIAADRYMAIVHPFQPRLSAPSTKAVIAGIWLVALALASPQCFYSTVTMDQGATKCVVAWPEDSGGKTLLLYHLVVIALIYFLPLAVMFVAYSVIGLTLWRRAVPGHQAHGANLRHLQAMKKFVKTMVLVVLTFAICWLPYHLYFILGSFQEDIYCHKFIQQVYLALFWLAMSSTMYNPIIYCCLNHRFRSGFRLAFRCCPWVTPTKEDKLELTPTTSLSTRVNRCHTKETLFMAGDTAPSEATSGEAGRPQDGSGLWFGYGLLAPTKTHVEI
Put plainly: NK-2 receptor inhibition. The format is binding.

In another test the target is T2, NK-3 receptor (Homo sapiens, UniProt P29371).
T2 sequence (P29371 1-465): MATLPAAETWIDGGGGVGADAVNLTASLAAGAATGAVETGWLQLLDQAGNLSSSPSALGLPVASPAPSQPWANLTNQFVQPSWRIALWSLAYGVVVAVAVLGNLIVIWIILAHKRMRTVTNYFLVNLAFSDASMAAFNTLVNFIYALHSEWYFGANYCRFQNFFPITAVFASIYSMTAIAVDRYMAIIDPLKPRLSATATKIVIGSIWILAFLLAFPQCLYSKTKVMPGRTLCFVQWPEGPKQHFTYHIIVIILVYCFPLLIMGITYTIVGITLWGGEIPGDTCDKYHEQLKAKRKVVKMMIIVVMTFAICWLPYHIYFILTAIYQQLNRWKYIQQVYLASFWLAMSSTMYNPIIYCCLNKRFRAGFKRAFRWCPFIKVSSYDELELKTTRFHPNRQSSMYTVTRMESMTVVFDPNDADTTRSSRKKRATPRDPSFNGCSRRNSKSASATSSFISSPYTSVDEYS
In words: NK-3 receptor inhibition. The format is binding.

For test [2], the system named is apomorphine-induced emesis. Put plainly: Emetic challenge study (apomorphine-induced emesis) in beagle dogs. The following applies: for Total No. Emetic Episodes: apomorphine 0.1 mg/kg iv 2 hours later, five dogs, APO control 28. The format is in vivo, beagle dog. Here is the method: Over the five (5) weeks of the study, each animal receives each of the treatments, but only one per week. The purpose of this study is to determine if tradipitant suppresses apomorphine-induced emesis.
The mid dose of tradipitant is the approximate half-log interval between the low and high doses.
All animals are dosed over a period of five (5) weeks, with each dog receiving one of five different treatments on each day of dosing.
All dogs are fasted overnight prior to each treatment day and then fed approximately one (1) hour after oral dosing (approximately one (1) hour prior to administration of apomorphine). Individual doses are adjusted weekly for changes in body weight.
The dose regimen consists of a 5×5 Latin square design, in which each subject receives 1 dose or dose combination per week (6 day washout) as shown in Table 3 below.

Another test addresses T3, NK-1 receptor (Cavia porcellus, UniProt P30547).
T3 construct: potency and CNS penetration of NK-1 antagonists in the guinea pig; from tissue; host or cells: brain of living Dunkin/Hartley guinea pigs
Put plainly: GR73632-induced vocalization in guinea pigs. In kind it is in vivo. The conditions noted are these: guinea pig. How it is done:
When introduced into the brain, the NK-1 receptor agonist substance P (SP) elicits distress vocalizations in the guinea pig that can be inhibited by NK-1 antagonists.
Male Dunkin/Hartley guinea pigs (200 to 250 grams) are orally administered either vehicle or an NK-1 antagonist. Approximately 45 minutes later (for dose response studies), the animals are anesthetized and 0.1 nmol of GR73632 (SP analog) in a vehicle volume of 5 μl is injected into the cerebral ventricle at the intersection of bregma and the midline of the skull. Animals are placed in a dark testing chamber located inside of a sound attenuation cubicle and vocalizations are recorded for 30 minutes following recovery from anesthesia. The time spent vocalizing is quantified for each animal. In the duration of action study, 0.1 mg/kg of tradipitant or vehicle solution is administered orally and then 2, 4, or 7 hours later, 0.1 nmol of GR73632 is administered into the cerebral ventricle as described above. Vocalizations are recorded and quantified as indicated above. Vehicle solutions are either CMC (FIG. 4 data) or an ethanol/emulphor solution (FIGS. 5 and 6). Data is analyzed using one-tailed t-tests.

For another test, the system named is brain NK-1 receptors. Put plainly: Occupancy of brain NK-1 receptors with tracer GR205171. The format is in vivo. The following applies: p.o., tracer GR205171 iv. Here is the method:
A tracer NK-1 antagonist compound (GR205171) is used to evaluate the ability of other NK-1 antagonists to occupy the brain NK-1 receptors. In these studies, the test compounds are administered orally and the tracer compound is administered intravenously afterward. The occupancy of the NK-1 receptors is evaluated by quantitating the amount of the tracer compound bound to the brain NK-1 receptors after increasing doses of the test compounds.

For test [3], the system named is small bowel transit and gastric emptying. Put plainly: Clinical study of gastrointestinal motility (gamma scintigraphy). In kind it is in vivo, human. The conditions noted are these: healthy subjects, 20 mg or 200 mg single oral dose; study underpowered for this parameter. How it is done:
A single-center, randomized, double-blind, placebo-controlled study is conducted to investigate the effect of tradipitant on small bowel transit time. A total of 15 healthy subjects, including 12 men and 3 women between the ages of 19 and 63 years, are enrolled in the study and receive at least 1 dose of study medication. A total of 13 subjects complete the study. Subjects are randomized to receive 20 mg of tradipitant, 200 mg of tradipitant, or placebo as a single oral dose within each of 3 periods, co-administered with a capsule radiolabeled with a maximum of 1MBq ^111In. Four hours post-dose, all subjects also receive a second capsule radiolabeled with a maximum of 4MBq ^99mTc. Each subject receives all 3 doses during the study. For all dosing regimens, in vivo gamma scintigraphic studies are performed at predetermined intervals, and the following scintigraphic parameters are analyzed: onset and completion of gastric emptying, onset and completion of colon arrival, initiation and completion of small bowel transit, and initial and complete disintegration of the capsule (anatomical location and time).

SMILES strings stand for the structures. Marks after values point to notes of the source that are not given here. A value given as a limit tells only on which side of the number the result lay.

Here are results for one molecule from patent publication US20240299373A1, “IMPROVED USE OF TRADIPITANT IN MOTION SICKNESS” (Vanda Pharmaceuticals Inc., priority 2023, published 2024).

T3 sequence (P30547 whole entry): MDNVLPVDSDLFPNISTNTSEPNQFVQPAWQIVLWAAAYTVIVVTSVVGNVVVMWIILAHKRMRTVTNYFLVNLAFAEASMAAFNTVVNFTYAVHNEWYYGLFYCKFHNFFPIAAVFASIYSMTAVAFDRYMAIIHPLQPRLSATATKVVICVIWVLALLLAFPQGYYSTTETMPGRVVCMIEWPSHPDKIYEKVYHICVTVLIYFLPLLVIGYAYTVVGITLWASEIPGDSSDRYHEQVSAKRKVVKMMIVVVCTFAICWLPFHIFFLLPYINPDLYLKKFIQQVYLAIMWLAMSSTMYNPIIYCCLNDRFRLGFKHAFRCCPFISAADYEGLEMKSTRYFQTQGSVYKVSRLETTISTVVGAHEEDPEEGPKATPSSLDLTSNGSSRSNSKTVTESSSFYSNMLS

Take `O=C(c1ccccc1Cl)c1cccnc1-c1nnn(Cc2cc(C(F)(F)F)cc(C(F)(F)F)c2)c1-c1ccncc1` [Tradipitant, {2-[1-(3,5-bistrifluoromethylbenzyl)-5-pyridin-4-yl-1H-[1,2,3]triazol-4-yl]-pyridin-3-yl}-(2-chlorophenyl)-methanone]: the “inhibition of binding in panel of 74 other receptors, enzymes, and ion channels” value in test [1] was at most 50%. Moreover, on NK-2 receptor, the “inhibition at NK-2 receptor” value is “no significant inhibition”. The “inhibition at NK-3 receptor” value against NK-3 receptor is on record as “no significant inhibition”. Besides, the “Total No. Emetic Episodes” value in test [2] (0.3 mg/kg oral), in test [2] (1.0 mg/kg oral) and in test [2] (3.0 mg/kg oral) was 1** each time. Further, the “effect against apomorphine-induced emesis” value in test [2] (each dose tested (0.3, 1.0, and 3.0 mg/kg)) was “effective”. For the same molecule, the “suppression of agonist-induced vocalization” value at NK-1 receptor (0.1 mg/kg oral, 7 hours after administration) was “significantly active”. In addition, the duration of activity result on NK-1 receptor (administered orally) is “exceeds 7 hours”. The “inhibitory activity on vocalization” value against NK-1 receptor (at and below 0.1 mg/kg oral) is “retains significant inhibitory activity”. Also, at NK-1 receptor (oral, 10, 1.0, 0.1 and 0.05 mg/kg (each p<0.001)), the “inhibition of agonist-induced vocalization” value is on record as “significant inhibition”. The “minimum effective dose (MED), inhibition of vocalization” value at NK-1 receptor (oral, p<0.001 compared to controls) turned out to be 0.025 mg/kg. The “ED50, occupancy of brain NK-1 receptors” value in the test with brain NK-1 receptors is listed as 0.04 mg/kg. The “effect on gastric emptying” value in test [3] is “No effect”.
